Data: patent publication US20250312344A1, “COMBINATION THERAPIES USING PRMT5 INHIBITORS AND IMMUNE CHECKPOINT INHIBITORS FOR THE TREATMENT OF CANCER” (MIRATI THERAPEUTICS, INC., priority 2024, published 2025)

Test system: murine syngeneic cancer model with a homozygous deletion of the Mtap gene (Mtap^DEL)
Experiment: MRTX1719 + immune checkpoint blockade combination study, tumor growth in Mtap^DEL syngeneic model
Format: in vivo, BALB/c mice
Protocol: Immune-competent female BALB/c mice were implanted with murine syngeneic cancer model with a homozygous deletion of the Mtap gene (Mtap^DEL). Mouse health was monitored daily, and caliper measurements began when tumors were palpable. Tumor volume measurements were determined utilizing the formula 0.5×L×W2 in which L refers to length and W refers to width of each tumor. When tumors reached approximately 80 mm^3, animals were randomized to receive A) vehicle (0.5% methylcellulose (4000 cps)/0.2% Tween80 in water) and isotype control antibodies), B) immune checkpoint blockade antibodies targeting mouse-Ctla-4 and mouse-Pd-1 and vehicle, C) a PRMT5 inhibitor and isotype control antibodies, or D) the PRMT5 inhibitor and immune checkpoint blockade antibodies targeting mouse-Ctla-4 and mouse-Pd-1. Tumor volumes were measured two or three times per week (n=10/treatment group). Tumor Growth Inhibition (% TGI) was calculated using the formula: (1−(Final Drug Treated Tumor Volume−Initial Drug Treated Tumor Volume)/(Final Vehicle Treated Tumor Volume−Initial Vehicle Treated Tumor Volume))*100.
This example was conducted according to the study procedure described above. The PRMT5 inhibitor was MRTX1719 administered at 100 mg/kg once a day (QD). MRTX1719 used is as described herein.
The immune checkpoint antibody targeting mouse-Ctla-4 was dosed on Day 0 while the antibody targeting mouse-Pd-1 was dosed on Day 0, 3 and 6.

Cn1ncc(-c2ccc3c(=O)[nH]nc(CN)c3c2)c1-c1c(F)c(Cl)cc(OC2CC2)c1C#N [MRTX1719]
Tumor volume (Study Day 1, MRTX1719 100 mg/kg QD, aCTLA-4 Day 0, aPD-1 Day 0, 3, 6): 115 mm^3
Tumor volume (Study Day 3, MRTX1719 100 mg/kg QD, aCTLA-4 Day 0, aPD-1 Day 0, 3, 6): 118 mm^3
Tumor volume (Study Day 6, MRTX1719 100 mg/kg QD, aCTLA-4 Day 0, aPD-1 Day 0, 3, 6): 154 mm^3
Tumor volume (Study Day 8, MRTX1719 100 mg/kg QD, aCTLA-4 Day 0, aPD-1 Day 0, 3, 6): 182 mm^3
Tumor volume (Study Day 10, MRTX1719 100 mg/kg QD, aCTLA-4 Day 0, aPD-1 Day 0, 3, 6): 233 mm^3
Tumor volume (Study Day 13, MRTX1719 100 mg/kg QD, aCTLA-4 Day 0, aPD-1 Day 0, 3, 6): 352 mm^3
Tumor volume (Study Day 15, MRTX1719 100 mg/kg QD, aCTLA-4 Day 0, aPD-1 Day 0, 3, 6): 558 mm^3
Tumor volume (Study Day 17, MRTX1719 100 mg/kg QD, aCTLA-4 Day 0, aPD-1 Day 0, 3, 6): 858 mm^3
Tumor volume (Study Day 20, MRTX1719 100 mg/kg QD, aCTLA-4 Day 0, aPD-1 Day 0, 3, 6): 1010 mm^3
Tumor volume (Study Day 22, MRTX1719 100 mg/kg QD, aCTLA-4 Day 0, aPD-1 Day 0, 3, 6): 1171 mm^3
Tumor volume (Study Day 24, MRTX1719 100 mg/kg QD, aCTLA-4 Day 0, aPD-1 Day 0, 3, 6): 1312 mm^3
Tumor volume (Study Day 27, MRTX1719 100 mg/kg QD, aCTLA-4 Day 0, aPD-1 Day 0, 3, 6): 1644 mm^3
Tumor volume (Study Day −1 (before dosing), n=10/group): 82 mm^3
% TGI (Day 17) (Tumor Growth Inhibition vs vehicle, Day 17, MRTX1719 100 mg/kg QD, aCTLA-4 Day 0, aPD-1 Day 0, 3, 6): 43.5%
